In patent US7671057B2, “Therapeutic agent for type II diabetes comprising protease-inhibiting compound” (Ono Pharmaceutical Co., Ltd., priority 2004, dated 2010):

Tests used:
Format in all cases: in vivo, mouse
KK-A^y/Ta Jcl mice [1] = assay: Blood-sugar level, administration as admixture with food (Example 2)
Method: (§1) KK-A^y/Ta Jcl Mice (male, 6- to 7-weeks aged, the number of cases; 8 animals) were treated through individual administration, in the form of an admixture with a food, of the Test Compound 2 (N-allyl-N-{(2E)-3-[4-({4-[amino(imino)methyl]phenoxy}-carbonyl)phenyl]-2-methyl-2-propenoyl}glycine/dimethane-sulfonate) of the present invention and the Control Compound 1 (5-(4-[2-(5-ethylpyridine-2-yl)ethoxy]benzyl)-1,3-thiazolidine-2,4-dione; pioglitazone) at the daily dose of 16.8 mg/100 g-food for 7 consecutive days, whereby the control group was fed with an ordinary food alone.
(§2) Blood was drawn from the tail vein individually on the day (Day 1) preceding to administration of the Test Compound in the form of an admixture with a food, and on Days 2, 5, 7 and 14 of administration, and the blood samples were subjected to measurement of the blood-sugar level in accordance with the same procedure as described in Example 1, while, at the same time, the animals were weighed.

KK-A^y/Ta Jcl mice [2] = assay: Weights of pancreas, liver and kidney at autopsy (Example 3)
Method: On Day 28 of administration of each compound in the form of an admixture with a food, furthermore, each animal after blood had been drawn from the tail vein was treated through individual forced oral administration of the Test Compound 2 in the form of the solutions individually consisting of 0.2, 0.6, 2.0 and 6.0 mg/mL-0.5% CMC suspension in each 5 mL/kg portion, as well as the Control Compound 1 in the form of the solutions individually consisting of 2.0 and 6 mg/mL-0.5% CMC suspension in each 5 ml/kg portion, followed by blood drawing 30 min. later and autopsy to thereby measure the weights of the pancreas, liver and kidney, whereby the control group was treated through administration of the 0.5% CMC suspension in the same portion.

[3] = Body weight after repeated administration for 14 days (Example 1); settings: after repeated administration for 14 consecutive days
Method: Following the above-described single administration, the repeated, once-a-day forced oral administration of each compound was performed at the same daily dose for the total period of 14 consecutive days. […] The blood-sugar, TC, TG, IRI and IRG levels and the body weight were expressed as a mean value±standard deviation as calculated for each group of animals. With reference to the significance test between the group treated through administration of the medium and each group treated through administration of the compound, the F test was effected to analyze the data and then, the Student's t-test and Aspin-Welch's t-test were used in cases where the variance between the two groups was determined to be equal and unequal, respectively.

[4] = Body weight, administration as admixture with food (Example 2)
Method: as §1, §2

KK-A^y/Ta Jcl mice [5] = assay: Blood-sugar level at satiety, dose-ranging food admixture up to Day 28 (Example 3); settings: for Blood-sugar level: end of the test (Day 28)
Method: KK-A^y/Ta Jcl Mice (male, 6-weeks aged, the number of cases; 8 animals) were treated through individual administration, in the form of an admixture with a food, of the Test Compound 2 (N-allyl-N-{(2E)-3-[4-({4-[amino(imino)methyl]phenoxy}-carbonyl)phenyl]-2-methyl-2-propenoyl}glycine/dimethanesulfonate) of the present invention at the daily doses of 0.56 mg, 1.68 mg, 5.6 mg and 16.8 mg/100 g-food, respectively, and the Control Compound 1 (5-{4-[2-(5-ethylpyridine-2-yl)-ethoxy]benzyl}-1,3-thiazolidine-2,4-dion; pioglitazone) at the daily doses of 5.6 mg and 16.8 mg/100 g-food, respectively, […], whereby the control group was fed with an ordinary food alone.
Blood was drawn from the tail vein individually on the day preceding to administration of each compound in the form of an admixture with a food, and on Days 6, 11, 16, 21 and 28 of administration.
The blood samples taken from the tail vein on the respective specified days after the administration were subjected to measurement of the blood-sugar level in accordance with the method as described in Example 1, while the plasma glucagon level after the forced oral administration performed on Days 28 was measured in accordance with the ELISA method as described in Example 1. Also, the glycosylated hemoglobin (HbA1c) and GLP-1 levels were determined in accordance with the latex coagulation method and the ELISA method (YK160, GLP-1 EIA Kit, produced by K.K. Yanaihara Kenkyu-sho of Japan), respectively, while the TG level was measured in accordance with the method as described in Example 1. The total pancreatic insulin content after oral administration of each compound was determined by adding 75% ethanol to the isolated pancreas as frozen, followed by homogenization, and collecting the insulin fraction through Sep-Pak (C18; WATER) treatment of the supernatant liquid produced by centrifugation, followed by determination with the ELIZA method.

[6] = day preceding administration (baseline), 16.8 mg/100 g-food group
[7] = autopsy Day 28, Dose 16.8 (g/100 g-food)

Structure (SMILES): CCc1ccc(CCOc2ccc(CC3SC(=O)NC3=O)cc2)nc1 (stereo not drawn) [Control Compound 1, 5-{4-[2-(5-ethylpyridine-2-yl)ethoxy]benzyl}-1,3-thiazolidine-2,4-dione, reference compound]
- Blood-sugar level Day 2 (KK-A^y/Ta Jcl mice [1]; 16.8 mg/100 g-food admixture): 323.3 ± 15.7 mg/dL
- Blood-sugar level Day 5 (KK-A^y/Ta Jcl mice [1]; 16.8 mg/100 g-food admixture): 350.0 ± 13.6 mg/dL
- Blood-sugar level Day 7 (KK-A^y/Ta Jcl mice [1]; 16.8 mg/100 g-food admixture): 311.3 ± 19.4 mg/dL
- Blood-sugar level Day 14 (KK-A^y/Ta Jcl mice [1]; 16.8 mg/100 g-food admixture): 270.5 ± 10.8 mg/dL
- Blood-sugar level Day 1 (KK-A^y/Ta Jcl mice [1]; [6]): 309.3 ± 21.2 mg/dL
- Weight of the liver (in words) (KK-A^y/Ta Jcl mice [2]; autopsy Day 28): raise further the weight of the liver
- Weight Kidney (KK-A^y/Ta Jcl mice [2]; [7]): 0.49 ± 0.02 g
- Weight Liver (KK-A^y/Ta Jcl mice [2]; [7]): 2.62 ± 0.11 g
- Weight Pancreas (KK-A^y/Ta Jcl mice [2]; [7]): 0.36 ± 0.01 g
- Effect on mouse body-weight vs control medium group (in words) [3]: significant elevation in the body weight
- Body weight ([3]; 30 mg/kg p.o.): 31.7 ± 0.8 g
- Body weight Day 2 ([4]; 16.8 mg/100 g-food admixture): 30.4 ± 0.7 g
- Body weight Day 5 ([4]; 16.8 mg/100 g-food admixture): 33.3 ± 0.8 g
- Body weight Day 7 ([4]; 16.8 mg/100 g-food admixture): 34.6 ± 0.6 g
- Body weight Day 14 ([4]; 16.8 mg/100 g-food admixture): 39.4 ± 1.1 g
- Body weight Day 1 [4, 6]: 29.8 ± 0.7 g
- Effect on body weight (in words) ([4]; food admixture 16.8 mg/100 g-food, time course): tendency to elevate the body weight
- Blood-sugar lowering effect at the end of the test (Day 28) (in words) (KK-A^y/Ta Jcl mice [5]; 16.8 mg/100 g group): no blood-sugar lowering effect observed
- Time-course changes in blood-sugar level at satiety vs Control Group (in words, FIG. 1) (KK-A^y/Ta Jcl mice [5]; 16.8 mg/100 g group): significant drops in blood-sugar level on Days 6 and 11
- Blood-sugar level (KK-A^y/Ta Jcl mice [5]; Dose 5.6 (g/100 g-food)): 561.6 ± 28.2 mg/dL
- Blood-sugar level (KK-A^y/Ta Jcl mice [5]; Dose 16.8 (g/100 g-food)): 497.0 ± 26.8 mg/dL
